Measured values: patent US6576595B1, “Xanthone derivatives, processes for their preparation and their use for controlling harmful fungi, and compositions comprising these derivatives” (BASF Aktiengesellschaft, priority 2001, dated 2003)

How the values were obtained:
[1] = system: mildew of wheat (Blumeria graminis forma specialis tritici); assay: activity against powdery mildew of wheat (protective spray test on potted wheat seedlings); format: in vivo; details: wheat seedlings cultivar Kanzler, sprayed 24 h before inoculation, assessed visually after 7 days, untreated plants 90% infected
Procedure: The active compounds were prepared separately or jointly as a 10% strength emulsion in a mixture of 70% by weight of cyclohexanone, 20% by weight of Nekanil® LN (Lutensol® AP6, wetting agent having emulsifying and dispersing action based on ethoxylated alkylphenols) and 10% by weight of Wettol® EM (nonionic emulsifier based on ethoxylated castor oil) and diluted with water to the desired concentration.
Use example—activity against powdery mildew of wheat
Leaves of potted wheat seedlings of the cultivar “Kanzler” were sprayed to runoff point with an aqueous preparation of active compound which had been prepared from a stock solution of 10% of active compound, 63% of cyclohexanone and 27% of emulsifier. 24 hours after the spray coating had dried on, the leaves were dusted with spores of mildew of wheat (Blumeria graminis forma specialis tritici). The test plants were then placed in a greenhouse at 20-24° C. and 60 to 90% relative atmospheric humidity.
After 7 days, the extent of the mildew development was determined visually in % infection of the entire leaf area.

melting point	Structure (SMILES)	extent of the mildew development in % infection of the entire leaf area ([1]; 4 ppm active compound)	extent of the mildew development in % infection of the entire leaf area ([1]; 16 ppm active compound)
158 °C	COc1cc(C)c2c(=O)c3c(OC)cccc3oc2c1OC		
162 °C	COc1cc(C)c2c(=O)c3c(oc2c1OC)C(Br)=CCC3(C)OC (centres unmarked)		

Structure (SMILES)	melting point	extent of the mildew development in % infection of the entire leaf area ([1]; 4 ppm active compound)	extent of the mildew development in % infection of the entire leaf area ([1]; 16 ppm active compound)
COc1cc(C)c2c(=O)c3c(C)c(Cl)ccc3oc2c1OC [I-5, 7-chloro-3,4-dimethoxy-1,8-dimethylxanthen-9-one]	180 °C	not more than 3%	not more than 3%
